Several values for one entry are separate records, joined by “and”; a condition that tells them apart may be missing. Identical values can stand only once.
Target: Genome polyprotein (dengue virus type 2, UniProt P29990)
Format: functional, Thailand/16681/1984

Genome polyprotein, sequence (P29990 1346-1475 limits assumed): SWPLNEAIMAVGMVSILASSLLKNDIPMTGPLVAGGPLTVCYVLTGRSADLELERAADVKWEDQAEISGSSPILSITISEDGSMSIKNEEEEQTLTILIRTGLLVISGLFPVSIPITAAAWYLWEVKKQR
Genome polyprotein, sequence (P29990 1476-2093 limits assumed): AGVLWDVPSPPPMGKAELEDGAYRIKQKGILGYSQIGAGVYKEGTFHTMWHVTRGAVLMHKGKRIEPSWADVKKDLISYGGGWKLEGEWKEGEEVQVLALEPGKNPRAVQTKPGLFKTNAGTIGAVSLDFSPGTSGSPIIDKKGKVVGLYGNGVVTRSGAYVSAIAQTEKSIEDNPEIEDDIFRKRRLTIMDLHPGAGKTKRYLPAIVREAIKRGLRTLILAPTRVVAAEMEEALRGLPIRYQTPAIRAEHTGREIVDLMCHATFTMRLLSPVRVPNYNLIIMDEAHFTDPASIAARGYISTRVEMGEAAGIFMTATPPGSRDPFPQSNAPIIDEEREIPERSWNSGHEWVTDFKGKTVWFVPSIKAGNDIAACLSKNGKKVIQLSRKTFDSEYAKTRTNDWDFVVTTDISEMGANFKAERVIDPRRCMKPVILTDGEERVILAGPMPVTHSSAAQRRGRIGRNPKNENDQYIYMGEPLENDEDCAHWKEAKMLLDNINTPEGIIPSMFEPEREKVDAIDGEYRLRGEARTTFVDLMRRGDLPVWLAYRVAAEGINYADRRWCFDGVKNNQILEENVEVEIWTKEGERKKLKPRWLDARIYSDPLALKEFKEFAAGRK

| SMILES | IC50 |
| --- | --- |
| O=C(O)c1cc(Cl)ccc1NS(=O)(=O)c1ccc(N[C@H]2CCCOC2)nc1 | > 99.5 µM |
| Cn1ccc(Nc2ccc(S(=O)(=O)Nc3ccc(Cl)cc3C(=O)O)cn2)n1 | > 99.5 µM |
| N=C(N)NCc1ccc(NC(=O)Oc2ccccc2)cc1 | > 59.8 µM |
| Cc1cc(Cl)c(C)c(C(=O)O)c1NS(=O)(=O)c1ccc(Oc2ccccc2Cl)cc1 | 36.5 µM |
| O=C(N[C@H](C(=O)NCc1cccc(CO)n1)c1ccc(OCc2ccccc2)cc1)OCc1ccccc1 | > 99.5 µM |
| NCc1cccc(NC(=O)[C@@H](NC(=O)OCc2ccccc2)C(C2CCC2)C2CCC2)c1 | > 99.5 µM and 98.9 µM |
| O=C(O)c1cc(OC2CCOCC2)c(F)cc1NS(=O)(=O)c1ccc(Oc2ccccc2Cl)cc1 | 13.7 µM |
| O=C1OCc2ccc(NC(=O)c3cc(F)cc4[nH]ncc34)cc21 | > 99.5 µM |
| C[C@@H]1C[C@H](NS(=O)(=O)c2ccc(Cl)cc2C(=O)O)C[C@H](C)N1Cc1ccccc1 | > 99.5 µM |
| NCc1cccc(NC(=O)[C@H](NC(=O)c2ccccc2Cl)c2ccc(OCc3ccccc3)cc2)c1 | 45.8 µM |
| CN(Cc1cccnc1)Cc1c[nH]c2ccccc12 | > 99.5 µM |
| O=C(O)c1cc(Cl)ccc1NS(=O)(=O)c1ccc(-c2cccnc2)cc1 | 91.3 µM |
| CCN1CC[C@@H](COc2ccc([C@@H](NC(=O)OCc3ccccc3)C(=O)Nc3cccc(CN)c3)cc2)C1 | > 99.5 µM |
| C1=C(c2cccnc2)CN(Cc2c[nH]c3ccccc23)CC1 | > 99.5 µM |
| COCc1ccccc1Nc1ccc(S(=O)(=O)Nc2ccc(Cl)cc2C(=O)O)cn1 | > 99.5 µM |
| O=C(NCc1nnn[nH]1)c1cc(Cl)ccc1NS(=O)(=O)c1ccc(Oc2ccccc2Cl)cc1 | 64.5 µM |
| O=C(NCc1cocn1)c1cc(Cl)ccc1NS(=O)(=O)c1ccc(Oc2ccccc2Cl)cc1 | 24.7 µM |
| NCc1cccc(NC(=O)[C@@H]2c3ccsc3CCN2C(=O)OCc2ccccc2)c1 | > 99.5 µM |
| COc1ccc(-n2nnnc2SC(F)F)cc1 | > 99.5 µM |
| C[C@@H](NC(=O)c1ccc2[nH]cc(C=O)c2c1)C1=CCN(C)CC1 | > 99.5 µM |
| CCn1ccnc(N2CC[C@H](C3CCOCC3)C2)c1=O | > 99.5 µM |
| O=C(O)c1cc(Cl)ccc1NS(=O)(=O)c1ccc(-c2ccccc2F)cc1 | 10.1 µM |
| NCc1cccc(NC(=O)[C@@H](NC(=O)OCc2ccccc2)c2ccc(OC[C@H]3CCCCO3)cc2)c1 | > 99.5 µM |
| CCOC1CC(S(=O)(=O)N[C@H](C(=O)Nc2cccc(CN)c2)c2ccc(OCc3ccccc3)cc2)C1 (stereo partly drawn) | > 99.5 µM |
| CNC(=O)c1cc(C#N)ccc1NS(=O)(=O)c1ccc(Oc2ccccc2Cl)cc1 | 44.8 µM |

| SMILES | IC50 |
| --- | --- |
| Cc1noc(C)c1C(=O)N[C@@H](C(=O)Nc1cccc(CN)c1)c1ccc(OCc2ccccc2)cc1 | > 99.5 µM |
| NCc1cccc(NC(=O)c2cc(Cl)ccc2NS(=O)(=O)c2ccc(Oc3ccccc3Cl)cc2)c1 | > 99.5 µM |
| CN1CCC(c2nc(C(F)(F)F)n3c2CN(c2cccc(C(N)=O)n2)CC3)CC1 | > 99.5 µM |
| NCC1(NC(=O)[C@H](NC(=O)OCc2ccccc2)c2ccc(OCc3ccccc3)cc2)CCCCC1 | > 99.5 µM |
| CCn1c(=O)c(N2CC[C@H](c3nncs3)C2)nc2ccccc21 | > 99.5 µM |
| CN(C)Cc1cc(CNC(=O)[C@@H](NC(=O)OCc2ccccc2)c2ccc(OCc3ccccc3)cc2)ccc1F | > 99.5 µM |
| NCc1cccc(NC(=O)[C@H](NS(=O)(=O)c2cccnc2)c2ccc(OCc3ccccc3)cc2)c1 | > 99.5 µM |
| O=C(O)c1cc(Cl)ccc1CNS(=O)(=O)c1ccc(Oc2ccccc2Cl)cc1 | 98.8 µM |
| N#Cc1cccc(NC(=O)c2cccc(OCc3c(Cl)cccc3Cl)c2)c1 | > 99.5 µM |
| Cc1cc(CNC(=O)[C@@H](NC(=O)OCc2ccccc2)c2ccc(OCc3ccccc3)cc2)cc(C)n1 | > 99.5 µM |
| COCc1nn(CC#Cc2ccc(Cl)cc2)c(=O)o1 | > 99.5 µM |
| CNC(=O)c1cc(Cl)c(OC)cc1NS(=O)(=O)c1ccc(Oc2ccccc2Cl)cc1 | 31.9 µM |
| NCc1cccc(NC(=O)[C@H]2[C@H]3CCCC[C@H]3[C@@H]2NC(=O)OCc2ccccc2)c1 | 95.5 µM |
| O=Cc1ccc(N2CCC(C(=O)N3CCC(N4CCc5ccccc5C4)CC3)CC2)cc1 | > 99.9 µM |
| CCn1nccc1-c1cccc([C@@H](NC(=O)OCc2ccccc2)C(=O)Nc2cccc(CN)c2)c1 | > 99.5 µM |
| NCc1ccccc1Oc1ccc(S(=O)(=O)Nc2ccc(Cl)cc2C(=O)O)cc1 | > 99.5 µM |
| NC[C@H]1C[C@@H](NC(=O)c2cc(Cl)ccc2NS(=O)(=O)c2ccc(Oc3ccccc3Cl)cc2)C1 | > 99.5 µM |
| NC[C@@H]1CN(c2cc(N3CC[C@H](N)C3)cc3c2COB3O)C(=O)O1 | > 99.5 µM |
| CCn1cc(-c2cnn(-c3ccccc3)c2)nc(N2CC[C@@H](CO)C2)c1=O | > 99.5 µM |
| NCc1cccc(N2CCN(C(=O)OCc3ccccc3)[C@H](c3ccc(OCc4ccccc4)cc3)C2=O)c1 | 74.7 µM |
| c1ccc(COc2cccc3[nH]cc(CN4CCC(c5cscn5)CC4)c23)cc1 | > 99.5 µM |
| c1cc(CN2CCC(c3cscn3)CC2)[nH]n1 | > 99.5 µM |
| O=C(Nc1ccc2c(c1)CNC2)c1cc(F)c2[nH]c(=O)[nH]c2c1 | > 99.5 µM |
| NCc1cccc(NC(=O)C[C@H](NC(=O)OCc2ccccc2)c2ccc(Cl)c(F)c2)c1 | 97.6 µM |
| NCc1cccc(NC(=O)[C@H](NC(=O)OCc2ccccc2)c2cccc(OCC3CCOCC3)c2)c1 | > 99.5 µM |

| SMILES | IC50 |
| --- | --- |
| Cc1cc(C(=O)N[C@@H]2CC[C@@H]3CN(C)C[C@@H]32)sc1C=O | > 99.5 µM |
| CN(C)C[C@@]1(O)CCN(C(=O)c2cc(C=O)c[nH]2)C1 | > 99.5 µM |
| CCn1ccnc(N2C[C@@H](O)[C@H](c3c[nH]c4ccccc34)C2)c1=O | > 99.5 µM |
| Cc1ncccc1-c1ccc([C@@H](NC(=O)OCc2ccccc2)C(=O)Nc2cccc(CN)c2)cc1 | > 99.5 µM |
| C#CCn1ccnc(N2CC[C@H](CO)C2)c1=O | > 99.5 µM |
| COC(=O)c1cc(Cl)ccc1NS(=O)(=O)c1ccc(O)cc1 | > 99.5 µM |
| NCc1cccc(NC(=O)[C@H](NC(=O)OCc2ccccc2)C(C2CCC2)C2CCC2)c1 | > 99.5 µM |
| Cc1cc(OCc2ccccc2)ccc1NS(=O)(=O)c1ccc(Cl)cc1C(=O)O | 27.1 µM |
| CCn1ccnc(N2CC[C@H](C#N)C2)c1=O | > 99.5 µM |
| NCc1cccc(NC(=O)[C@@H](NC(=O)OCc2ccccc2)c2ccc(-c3ccccc3F)cc2)c1 | 10.4 µM |
| CCn1c(=O)c(N2CC[C@H](c3ccccc3)C2)nc2ccccc21 | > 99.5 µM |
| O=C(NCc1ccco1)c1csc(Br)c1 | > 99.5 µM |
| NCCCOc1cc(-c2ccc(N)nc2)cc2c1COB2O | > 99.5 µM |
| COc1ccccc1-c1ccc(S(=O)(=O)Nc2ccc(Cl)cc2C(=O)O)cc1 | 12.8 µM |
| NCc1cccc(NC(=O)c2cc(Br)cc(NC(=O)OCc3ccccc3)c2)c1 | 54.3 µM |
| CCn1c(=O)c(N2C[C@H]3COC(C)(C)OC[C@H]3C2)nc2ccccc21 | > 99.5 µM |
| CNC(=O)c1cccc(CNc2cc(Cl)cc(C(=O)NC(C)(C)CO)c2)c1 | > 99.5 µM |
| O=Cc1ccc(N2CCC(C(=O)N3CCC(CCN4CCCC4)CC3)CC2)cc1 | > 99.9 µM |
| O=C(O)c1cc(Cl)ccc1S(=O)(=O)NC1CCN(S(=O)(=O)Cc2ccccc2)CC1 | > 99.5 µM |
| COC(=O)[C@H](NC(=O)OC(C)(C)C)c1ccc(-c2csc(C)c2)cc1 | > 99.5 µM |
| Cc1nn(C)cc1S(=O)(=O)N[C@@H](C(=O)Nc1cccc(CN)c1)c1ccc(OCc2ccccc2)cc1 | > 99.5 µM |
| NCc1cccc(NC(=O)[C@H](NC(=O)OCc2ccccc2)c2cccc(OCc3ncccn3)c2)c1 | > 99.5 µM |
| O=C(Nc1cc(-c2cccnc2)ccn1)c1cc2n(c1)CCC2 | > 99.5 µM |

— ChEMBL document CHEMBL5604063, “ASAP - DENV-2 NS2B-NS3 protease fluorescence dose response” (2024)
